Assay results reported in PubChem BioAssay AID2060343 (Molecular Pharmacology Branch, DTP, NCI, 2025).

Test system: 138582-337-R-J1-PDC spheroids with HUVEC/MSC, viability
Assay: Anticancer human tumor 138582-337-R-J1-PDC patient-derived Merkel cell tumor cell line growth inhibition [IpAb]
Details: for IC50: curve of first compound; for viability, T/C: stronger effect = lower value
In short: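 Combinations with ipatasertib or abemaciclib were tested on tumour spheroids holding HUVEC (25%) and MSC (15%) alongside 60% malignant cells. Top concentration was at or near clinical Cmax (10 microM if undefined), descending in half-log steps.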

[1] = second compound 0.1 µM, first compound 0.000316 µM
[2] = second compound 0.1 µM, first compound 0.001 µM
[3] = second compound 0.1 µM, first compound 0.00316 µM
[4] = second compound 0.1 µM, first compound 0.01 µM
[5] = second compound 0.1 µM, first compound 0.0316 µM
[6] = second compound 0.1 µM, first compound 0.1 µM
[7] = second compound 0.316 µM, first compound 0.000316 µM
[8] = second compound 0.316 µM, first compound 0.001 µM
[9] = second compound 0.316 µM, first compound 0.00316 µM
[10] = second compound 0.316 µM, first compound 0.01 µM
[11] = second compound 0.316 µM, first compound 0.0316 µM
[12] = second compound 0.316 µM, first compound 0.1 µM
[13] = second compound 1 µM, first compound 0.000316 µM
[14] = second compound 1 µM, first compound 0.001 µM
[15] = second compound 1 µM, first compound 0.00316 µM
[16] = second compound 1 µM, first compound 0.01 µM
[17] = second compound 1 µM, first compound 0.0316 µM
[18] = second compound 1 µM, first compound 0.1 µM
[19] = second compound 3.16 µM, first compound 0.000316 µM
[20] = second compound 3.16 µM, first compound 0.001 µM
[21] = second compound 3.16 µM, first compound 0.00316 µM
[22] = second compound 3.16 µM, first compound 0.01 µM
[23] = second compound 3.16 µM, first compound 0.0316 µM
[24] = second compound 3.16 µM, first compound 0.1 µM
[25] = second compound 10 µM, first compound 0.000316 µM
[26] = second compound 10 µM, first compound 0.001 µM
[27] = second compound 10 µM, first compound 0.00316 µM
[28] = second compound 10 µM, first compound 0.01 µM
[29] = second compound 10 µM, first compound 0.0316 µM
[30] = second compound 10 µM, first compound 0.1 µM
[31] = second compound 0.1 µM, first compound 0.316 µM
[32] = second compound 0.1 µM, first compound 1 µM
[33] = second compound 0.316 µM, first compound 0.316 µM
[34] = second compound 0.316 µM, first compound 1 µM
[35] = second compound 1 µM, first compound 0.316 µM
[36] = second compound 1 µM, first compound 1 µM
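Further: spheroids exposed to compounds for seven days.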
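Wherever viability, T/C is given: 100% = DMSO vehicle control viability.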

CC(C)n1nc(-c2ccc3oc(N)nc3c2)c2c(N)ncnc21 + CC(C)NCC(C(=O)N1CCN(c2ncnc3c2C(C)CC3O)CC1)c1ccc(Cl)cc1
IC50 (second compound 0.1 µM): 22.4 nM
IC50 (second compound 0.316 µM): 7.57 nM
IC50 (second compound 1 µM): 1.97 nM
IC50 (second compound 3.16 µM): 0.362 nM
IC50 (second compound 10 µM): < 0.316 nM
viability, T/C [1]: 96.3%
viability, T/C [2]: 89.2%
viability, T/C [3]: 70%
viability, T/C [4]: 64.1%
viability, T/C [5]: 43.8%
viability, T/C [6]: 31.9%
viability, T/C [7]: 67.8%
viability, T/C [8]: 66%
viability, T/C [9]: 61.8%
viability, T/C [10]: 44.1%
viability, T/C [11]: 37%
viability, T/C [12]: 26.8%
viability, T/C [13]: 63.1%
viability, T/C [14]: 54.1%
viability, T/C [15]: 47.5%
viability, T/C [16]: 36.2%
viability, T/C [17]: 27.5%
viability, T/C [18]: 22%
viability, T/C [19]: 50%
viability, T/C [20]: 47.3%
viability, T/C [21]: 36%
viability, T/C [22]: 27.3%
viability, T/C [23]: 19.6%
viability, T/C [24]: 17.5%
viability, T/C [25]: 40.5%
viability, T/C [26]: 35.9%
viability, T/C [27]: 31.6%
viability, T/C [28]: 21.8%
viability, T/C [29]: 14.4%
viability, T/C [30]: 12.3%

COc1c(OCCCN2CCOCC2)ccc2c3n(c(=NC(=O)c4cnc(N)nc4)nc12)CCN3 + CC(C)NCC(C(=O)N1CCN(c2ncnc3c2C(C)CC3O)CC1)c1ccc(Cl)cc1
IC50 (second compound 0.1 µM): 46.5 nM
IC50 (second compound 0.316 µM): 27.3 nM
IC50 (second compound 1 µM): 11.8 nM
IC50 (second compound 3.16 µM): < 3.16 nM
IC50 (second compound 10 µM): < 3.16 nM
viability, T/C [3]: 81.3%
viability, T/C [4]: 74.2%
viability, T/C [5]: 58.3%
viability, T/C [6]: 32.5%
viability, T/C [31]: 19.8%
viability, T/C [32]: 3.52%
viability, T/C [9]: 74.7%
viability, T/C [10]: 63%
viability, T/C [11]: 49.4%
viability, T/C [12]: 28.9%
viability, T/C [33]: 16.7%
viability, T/C [34]: 2.34%
viability, T/C [15]: 59.3%
viability, T/C [16]: 53%
viability, T/C [17]: 39.3%
viability, T/C [18]: 25.6%
viability, T/C [35]: 13.9%
viability, T/C [36]: 1.91%
viability, T/C [21]: 46.8%
viability, T/C [22]: 41.7%
viability, T/C [23]: 33.9%
viability, T/C [24]: 21.5%
viability, T/C (second compound 3.16 µM, first compound 0.316 µM): 13.9%
viability, T/C (second compound 3.16 µM, first compound 1 µM): 1.61%
viability, T/C [27]: 35.6%
viability, T/C [28]: 31.9%
viability, T/C [29]: 24.8%
viability, T/C [30]: 16.3%
viability, T/C (second compound 10 µM, first compound 0.316 µM): 6.62%
viability, T/C (second compound 10 µM, first compound 1 µM): 1.13%

Cn1ncnc1[C@H]1c2n[nH]c(=O)c3cc(F)cc(c23)N[C@@H]1c1ccc(F)cc1 + CC(C)NCC(C(=O)N1CCN(c2ncnc3c2C(C)CC3O)CC1)c1ccc(Cl)cc1
IC50 (second compound 0.1 µM): > 100 nM
IC50 (second compound 0.316 µM): > 100 nM
IC50 (second compound 1 µM): > 100 nM
IC50 (second compound 3.16 µM): > 100 nM
IC50 (second compound 10 µM): < 0.316 nM
viability, T/C [1]: 99.1%
viability, T/C [2]: 83%
viability, T/C [3]: 89.1%
viability, T/C [4]: 78.3%
viability, T/C [5]: 78.6%
viability, T/C [6]: 82.9%
viability, T/C [7]: 69.7%
viability, T/C [8]: 81.8%
viability, T/C [9]: 64.5%
viability, T/C [10]: 70.9%
viability, T/C [11]: 72%
viability, T/C [12]: 74%
viability, T/C [13]: 72.8%
viability, T/C [14]: 64.2%
viability, T/C [15]: 68%
viability, T/C [16]: 72.7%
viability, T/C [17]: 74.2%
viability, T/C [18]: 62%
viability, T/C [19]: 58.1%
viability, T/C [20]: 67.6%
viability, T/C [21]: 59.2%
viability, T/C [22]: 55.2%
viability, T/C [23]: 51.3%
viability, T/C [24]: 54.8%
viability, T/C [25]: 38.2%
viability, T/C [26]: 46.7%
viability, T/C [27]: 42.4%
viability, T/C [28]: 39.2%
viability, T/C [29]: 38.9%
viability, T/C [30]: 40.2%

Cn1ncc(Cl)c1-c1cc(C(=O)NC(CN)Cc2cccc(F)c2)sc1Cl (stereo not given) + CCN1CCN(Cc2ccc(Nc3ncc(F)c(-c4cc(F)c5nc(C)n(C(C)C)c5c4)n3)nc2)CC1
IC50 (second compound 0.01 µM): 1500 nM
IC50 (second compound 0.0316 µM): 1270 nM
IC50 (second compound 0.1 µM): 1200 nM
IC50 (second compound 0.316 µM): 1190 nM
IC50 (second compound 1 µM): 792 nM
viability, T/C (second compound 0.01 µM, first compound 0.0316 µM): 88.8%
viability, T/C (second compound 0.01 µM, first compound 0.1 µM): 73.4%
viability, T/C (second compound 0.01 µM, first compound 0.316 µM): 61.9%
viability, T/C (second compound 0.01 µM, first compound 1 µM): 50.3%
viability, T/C (second compound 0.01 µM, first compound 3.16 µM): 50.6%
viability, T/C (second compound 0.01 µM, first compound 10 µM): 0.19%
viability, T/C (second compound 0.0316 µM, first compound 0.0316 µM): 83.8%
viability, T/C (second compound 0.0316 µM, first compound 0.1 µM): 70.8%
viability, T/C (second compound 0.0316 µM, first compound 0.316 µM): 58.5%
viability, T/C (second compound 0.0316 µM, first compound 1 µM): 50.2%
viability, T/C (second compound 0.0316 µM, first compound 3.16 µM): 45.4%
viability, T/C (second compound 0.0316 µM, first compound 10 µM): 0.24%
viability, T/C [5]: 84.4%
viability, T/C [6]: 84.6%
viability, T/C [31]: 61.1%
viability, T/C [32]: 48.9%
viability, T/C (second compound 0.1 µM, first compound 3.16 µM): 40.7%
viability, T/C (second compound 0.1 µM, first compound 10 µM): 0.17%
viability, T/C [11]: 92.8%
viability, T/C [12]: 81.8%
viability, T/C [33]: 68%
viability, T/C [34]: 52.1%
viability, T/C (second compound 0.316 µM, first compound 3.16 µM): 35.3%
viability, T/C (second compound 0.316 µM, first compound 10 µM): 0.21%
viability, T/C [17]: 94.2%
viability, T/C [18]: 95.3%
viability, T/C [35]: 70.3%
viability, T/C [36]: 39.9%
viability, T/C (second compound 1 µM, first compound 3.16 µM): 25.1%
viability, T/C (second compound 1 µM, first compound 10 µM): 0.27%
